# Results taken from patent US8933113B2 (Merck Sharp & Dohme Corp., priority 2011, dated 2015).
# Where two headings read alike, the source gives them in different places.
# Target: T1, full-length human Mineralocorticoid Receptor (MR) (Homo sapiens, UniProt P08235)
# T1 construct: host or cells: PathHunter CHO-K1 cells
# T1 sequence (P08235 1-984): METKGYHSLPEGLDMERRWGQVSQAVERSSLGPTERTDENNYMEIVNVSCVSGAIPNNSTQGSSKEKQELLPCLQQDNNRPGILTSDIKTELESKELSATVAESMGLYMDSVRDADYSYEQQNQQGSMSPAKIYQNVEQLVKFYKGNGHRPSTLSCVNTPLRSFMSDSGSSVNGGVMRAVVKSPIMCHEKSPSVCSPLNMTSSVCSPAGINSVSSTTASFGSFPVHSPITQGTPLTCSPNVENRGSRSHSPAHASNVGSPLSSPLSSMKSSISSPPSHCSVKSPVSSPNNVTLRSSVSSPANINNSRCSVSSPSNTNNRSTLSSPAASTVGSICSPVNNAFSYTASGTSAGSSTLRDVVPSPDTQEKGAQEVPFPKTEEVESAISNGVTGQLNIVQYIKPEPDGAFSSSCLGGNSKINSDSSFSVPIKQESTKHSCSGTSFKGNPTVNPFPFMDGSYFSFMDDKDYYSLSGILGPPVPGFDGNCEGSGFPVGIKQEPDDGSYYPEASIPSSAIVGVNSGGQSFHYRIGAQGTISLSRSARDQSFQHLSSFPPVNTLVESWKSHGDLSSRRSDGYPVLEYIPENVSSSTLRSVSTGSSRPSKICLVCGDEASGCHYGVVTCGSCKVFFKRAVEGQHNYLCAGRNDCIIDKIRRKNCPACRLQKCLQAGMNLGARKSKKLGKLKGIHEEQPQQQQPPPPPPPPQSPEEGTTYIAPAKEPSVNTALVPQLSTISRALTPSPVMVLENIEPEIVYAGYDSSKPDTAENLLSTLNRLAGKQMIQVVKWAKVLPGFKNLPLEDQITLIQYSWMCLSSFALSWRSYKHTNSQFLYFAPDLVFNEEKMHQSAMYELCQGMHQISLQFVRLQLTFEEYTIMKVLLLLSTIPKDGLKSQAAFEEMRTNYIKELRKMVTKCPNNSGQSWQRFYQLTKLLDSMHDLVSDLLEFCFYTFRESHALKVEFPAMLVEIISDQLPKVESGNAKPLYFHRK
# Assay: human MR NH Pro assay (PathHunter Protein:Protein interaction assay), MR antagonist activity
# Assay type: cell-based
# From the text: The activity of the compounds of the present invention regarding mineralocorticoid receptor antagonism can be evaluated using the following assay.
# Assessment of MR Potency in HMR NH Pro Assay
# The human MR NH Pro assay is a commercially available PathHunter™ Protein:Protein interaction assay (DiscoveRx; http://www.discoverx.com/nhrs/prod-nhrs.php) that measures the ability of compounds to antagonize full-length human Mineralocorticoid Receptor (MR) binding to a coactivator peptide.
# 6. Test compounds are titrated starting at 4.4 mM, 10-point titration in 1:3 dilution.
# 3. Add 5 μL 6× agonist (final aldosterone concentration should be about 0.3 nM to about 1.0 nM) to all wells (using the PlateMate Plus.)
# • (ThermoFisher) (except those wells in columns 23 and 24) 4. Add 5 uL of assay media to all wells in column 23 and 24. 5. Incubate 6 hrs at 37° C., 5% CO2. 6. Add 15 uL 3× DiscoveRx detection reagent to each well. 7. Incubate 1 hour at room temperature (keep plates stored in the dark). 8. Read plates on Envision (PerkinElmer) luminesence plate reader and analyze using ADA.
# [1] = PathHunter CHO-K1 cells overexpressing human MR, aldosterone about 0.3 nM, 6 hours at 37° C., luminescence, read-out: Primary Assay IP rating (IP = inflection point for a given dose-response titration curve)
SMILES,IC50 [1] [nM],IC50 [nM]
"CCC(CC#N)(c1ccc(Cl)cc1)n1ccc2c(NS(C)(=O)=O)cc(F)cc21 (single isomer, unassigned) [Compound 125, N-(1-(2-(4-chlorophenyl)-1-cyanobutan-2-yl)-6-fluoro-1H-indol-4-yl)methanesulfonamide]",< 100,
"CCC(CCC#N)(c1ccc(Cl)cc1)n1ncc2c(NS(C)(=O)=O)cccc21 (single isomer, unassigned) [Compound 137, N-(1-(3-(4-chlorophenyl)-1-cyanopentan-3-yl)-1H-indazol-4-yl)methanesulfonamide]",100 to 500,
"CCC(CCC#N)(c1ccc(Cl)cc1)n1ncc2c(NS(C)(=O)=O)cccc21 (single isomer, unassigned) [Compound 138, N-(1-(3-(4-chlorophenyl)-1-cyanopentan-3-yl)-1H-indazol-4-yl)methanesulfonamide]",< 100,
"CCC(CCC#N)(c1ccc(Cl)cc1)n1ccc2c(NS(C)(=O)=O)cccc21 (single isomer, unassigned) [Compound 140, N-(1-(3-(4-chlorophenyl)-1-cyanopentan-3-yl)-1H-indol-4-yl)methanesulfonamide]",< 100,
"CCC(CCC#N)(c1ccc(C(F)(F)F)cc1)n1ncc2c(NS(C)(=O)=O)cccc21 (single isomer, unassigned) [Compound 141, N-(1-(1-cyano-3-(4-(trifluoromethyl)phenyl)pentan-3-yl)-1H-indazol-4-yl)methanesulfonamide]",< 100,
"CCC(CCC#N)(c1ccc(Cl)cc1)n1ccc2c(NS(C)(=O)=O)cc(F)cc21 (single isomer, unassigned) [Compound 142, N-(1-(3-(4-chlorophenyl)-1-cyanopentan-3-yl)-6-fluoro-1H-indol-4-yl)methanesulfonamide]",< 100,
"CCC(CCC#N)(c1ccc(Cl)cc1)n1ccc2c(NS(C)(=O)=O)cc(F)cc21 (single isomer, unassigned) [Compound 143, N-(1-(3-(4-chlorophenyl)-1-cyanopentan-3-yl)-6-fluoro-1H-indol-4-yl)methanesulfonamide]",< 100,
"CCC(C(=O)CC#N)(c1ccc(Cl)cc1)n1ccc2c(NS(C)(=O)=O)cccc21 (single isomer, unassigned) [Compound 146, N-(1-(3-(4-Chlorophenyl)-1-cyano-2-oxopentan-3-yl)-1H-indol-4-yl)methanesulfonamide]",< 100,
"CCC(C(=O)NCCCl)(c1ccc(Cl)cc1)n1ccc2c(NS(C)(=O)=O)cccc21 (single isomer, unassigned) [Compound 148, N-(2-chloroethyl)-2-(4-chlorophenyl)-2-(4-(methylsulfonamido)-1H-indol-1-yl)butanamide]",,100 to 500
"CCC(c1ccc(Cl)cc1)(c1nc(C)no1)n1ccc2c(NS(C)(=O)=O)cccc21 (single isomer, unassigned) [Compound 150, N-(1-(1-(4-chlorophenyl)-1-(3-methyl-1,2,4-oxadiazol-5-yl)propyl)-1H-indol-4-yl)methanesulfonamide]",< 100,
"CCc1noc(C(CC)(c2ccc(Cl)cc2)n2ccc3c(NS(C)(=O)=O)cccc32)n1 (single isomer, unassigned) [Compound 151, N-(1-(1-(4-chlorophenyl)-1-(3-ethyl-1,2,4-oxadiazol-5-yl)propyl)-1H-indol-4-yl)methanesulfonamide]",< 100,
"CCC(C#CC#N)(c1ccc(Cl)cc1)n1ccc2c(NS(C)(=O)=O)cccc21 (single isomer, unassigned) [Compound 155, N-(1-(3-(4-chlorophenyl)-1-cyanopent-1-yn-3-yl)-1H-indol-4-yl)methanesulfonamide]",< 100,
"CCC(CCO)(c1ccc(Cl)cc1)n1ccc2c(NS(C)(=O)=O)cccc21 (single isomer, unassigned) [Compound 160, N-(1-(3-(4-Chlorophenyl)-1-hydroxypentan-3-yl)-1H-indol-4-yl)methanesulfonamide]",< 100,
"CCC(CCO)(c1ccc(Cl)cc1)n1ccc2c(NS(C)(=O)=O)cccc21 (single isomer, unassigned) [Compound 161, N-(1-(3-(4-Chlorophenyl)-1-hydroxypentan-3-yl)-1H-indol-4-yl)methanesulfonamide]",< 100,
"CCC(c1ccc(Cl)cc1)(C(C)N)n1ccc2c(NS(C)(=O)=O)cccc21 (single isomer, unassigned) [Compound 176, N-(1-(2-amino-3-(4-chlorophenyl)pentan-3-yl)-1H-indol-4-yl)methanesulfonamide]",< 100,
"CCn1nnc(C(CC)(c2ccc(Cl)cc2)n2ccc3c(NS(C)(=O)=O)cccc32)n1 (single isomer, unassigned) [Compound 179, N-(1-(1-(4-chlorophenyl)-1-(2-ethyl-2H-tetrazol-5-yl)propyl)-1H-indol-4-yl)methane sulfonamide]",< 100,
"CCC(CCC(F)(F)F)(c1ccc(Cl)cc1)n1ccc2c(NS(C)(=O)=O)cccc21 (single isomer, unassigned) [Compound 180, N-(1-(3-(4-chlorophenyl)-6,6,6-trifluorohexan-3-yl)-1H-indol-4-yl)methane sulfonamide]",< 100,
"COC(=O)C(c1ccc(Cl)cc1)n1ccc2c([N+](=O)[O-])cccc21 (stereo not shown) [Compound 1, methyl (4-chlorophenyl)(4-nitro-1H-indol-1-yl)acetate]",500 to 5000,
"COC(=O)C(c1ccc(F)cc1Cl)n1ccc2c([N+](=O)[O-])cccc21 (stereo not shown) [Compound 2, methyl (2-chloro-4-fluorophenyl)(4-nitro-1H-indol-1-yl)acetate]",100 to 500,
"COC(=O)C(c1ccc(Cl)cc1Cl)n1ccc2c([N+](=O)[O-])cccc21 (stereo not shown) [Compound 3, methyl (2,4-dichlorophenyl)(4-nitro-1H-indol-1-yl)acetate]",100 to 500,
"COC(=O)C(c1cccc(Br)c1)n1ccc2c([N+](=O)[O-])cccc21 (stereo not shown) [Compound 4, methyl (3-bromophenyl)(4-nitro-1H-indol-1-yl)acetate]",500 to 5000,
"COC(=O)C(c1ccc(OC)cc1)n1ccc2c([N+](=O)[O-])cccc21 (stereo not shown) [Compound 5, methyl (4-methoxyphenyl)(4-nitro-1H-indol-1-yl)acetate]",500 to 5000,
"CC[C@](C#N)(c1ccc(Cl)cc1)n1ccc2c(NS(C)(=O)=O)cccc21 [Compound 5a, (R)—N-{1-[1-(4-chlorophenyl)-1-cyanopropyl]-1H-indol-4-yl}methanesulfonamide]",< 100,
"COC(=O)C(c1ccc(F)cc1Cl)n1ccc2cc(C#N)ccc21 (stereo not shown) [Compound 11, methyl (2-chloro-4-fluorophenyl)(5-cyano-1H-indol-1-yl)acetate]",500 to 5000,
"COC(=O)C(c1ccc(F)cc1Cl)n1ccc2cc(Cl)ccc21 (stereo not shown) [Compound 12, methyl (2-chloro-4-fluorophenyl)(5-chloro-1H-indol-1-yl)acetate]",500 to 5000,
"COC(=O)C(c1ccc(F)cc1Cl)n1ccc2cc(F)ccc21 (stereo not shown) [Compound 13, methyl (2-chloro-4-fluorophenyl)(5-fluoro-1H-indol-1-yl)acetate]",500 to 5000,
"COC(=O)C(c1ccc(F)cc1Cl)n1ccc2ccc(Cl)cc21 (stereo not shown) [Compound 14, methyl (2-chloro-4-fluorophenyl)(6-chloro-1H-indol-1-yl)acetate]",500 to 5000,
"COC(=O)C(c1ccc(F)cc1Cl)n1ccc2cccc(F)c21 (stereo not shown) [Compound 15, methyl (2-chloro-4-fluorophenyl)(7-fluoro-1H-indol-1-yl)acetate]",500 to 5000,
